In ChEMBL document CHEMBL5715949, “Discovery of a selective irreversible BMX inhibitor for prostate cancer” (ACS Chem Biol, 2013):
Activity calls are given as the source filed them. The calls are words filed in the database; no cut-off is given here.

Experiments:
[1] = target: Serine/threonine-protein kinase Nek4 (Homo sapiens) (UniProt P51957); experiment: Inhibition of NEK4 (unknown origin) assessed as remaining activity at 1 uM by Kinome scan method relative to control
[2] = target: Myosin-IIIb (Homo sapiens) (UniProt Q8WXR4); experiment: Inhibition of MYO3B (unknown origin) assessed as remaining activity at 1 uM by Kinome scan method relative to control
[3] = target: Cyclin-dependent kinase 18 (Homo sapiens) (UniProt Q07002); experiment: Inhibition of PCTK3 (unknown origin) assessed as remaining activity at 1 uM by Kinome scan method relative to control
Sequence of Cyclin-dependent kinase 18 (Homo sapiens) (Q07002 whole entry): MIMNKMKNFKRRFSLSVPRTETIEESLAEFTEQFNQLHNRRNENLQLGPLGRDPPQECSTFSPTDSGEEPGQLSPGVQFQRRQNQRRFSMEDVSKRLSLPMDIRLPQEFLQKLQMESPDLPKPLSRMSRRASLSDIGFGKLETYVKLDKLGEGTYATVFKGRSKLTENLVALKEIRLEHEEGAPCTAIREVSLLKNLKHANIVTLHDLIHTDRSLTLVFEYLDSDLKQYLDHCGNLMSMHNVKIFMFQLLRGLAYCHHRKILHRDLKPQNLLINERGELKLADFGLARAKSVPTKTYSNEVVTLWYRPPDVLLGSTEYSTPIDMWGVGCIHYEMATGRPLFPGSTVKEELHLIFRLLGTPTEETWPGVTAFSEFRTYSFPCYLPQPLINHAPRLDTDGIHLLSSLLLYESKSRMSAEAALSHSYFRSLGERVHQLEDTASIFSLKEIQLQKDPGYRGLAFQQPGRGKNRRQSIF

[4] = Antiproliferative activity against human RV-1 cells assessed growth inhibition incubated for 2 to 5 days by CellTiter-Glo assay; format: functional; conditions: time 2-5 day
[5] = target: RAC-alpha serine/threonine-protein kinase (Homo sapiens) (UniProt P31749); experiment: Inhibition of AKT1 (unknown origin) assessed as remaining activity at 1 uM by Kinome scan method relative to control
[6] = target: BMP-2-inducible protein kinase (Homo sapiens) (UniProt Q9NSY1); experiment: Inhibition of BIKE (unknown origin) assessed as remaining activity at 1 uM by Kinome scan method relative to control
[7] = target: Cyclin-dependent kinase 5 (Homo sapiens) (UniProt Q00535); experiment: Inhibition of CDK5 (unknown origin) assessed as remaining activity at 1 uM by Kinome scan method relative to control
[8] = target: Mitogen-activated protein kinase kinase kinase 12 (Homo sapiens) (UniProt Q12852); experiment: Inhibition of DLK (unknown origin) assessed as remaining activity at 1 uM by Kinome scan method relative to control
[9] = target: Receptor tyrosine-protein kinase erbB-4 (Homo sapiens) (UniProt Q15303); experiment: Inhibition of ERBB4 (unknown origin) assessed as remaining activity at 1 uM by Kinome scan method relative to control
Sequence of Receptor tyrosine-protein kinase erbB-4 (Homo sapiens) (Q15303 whole entry): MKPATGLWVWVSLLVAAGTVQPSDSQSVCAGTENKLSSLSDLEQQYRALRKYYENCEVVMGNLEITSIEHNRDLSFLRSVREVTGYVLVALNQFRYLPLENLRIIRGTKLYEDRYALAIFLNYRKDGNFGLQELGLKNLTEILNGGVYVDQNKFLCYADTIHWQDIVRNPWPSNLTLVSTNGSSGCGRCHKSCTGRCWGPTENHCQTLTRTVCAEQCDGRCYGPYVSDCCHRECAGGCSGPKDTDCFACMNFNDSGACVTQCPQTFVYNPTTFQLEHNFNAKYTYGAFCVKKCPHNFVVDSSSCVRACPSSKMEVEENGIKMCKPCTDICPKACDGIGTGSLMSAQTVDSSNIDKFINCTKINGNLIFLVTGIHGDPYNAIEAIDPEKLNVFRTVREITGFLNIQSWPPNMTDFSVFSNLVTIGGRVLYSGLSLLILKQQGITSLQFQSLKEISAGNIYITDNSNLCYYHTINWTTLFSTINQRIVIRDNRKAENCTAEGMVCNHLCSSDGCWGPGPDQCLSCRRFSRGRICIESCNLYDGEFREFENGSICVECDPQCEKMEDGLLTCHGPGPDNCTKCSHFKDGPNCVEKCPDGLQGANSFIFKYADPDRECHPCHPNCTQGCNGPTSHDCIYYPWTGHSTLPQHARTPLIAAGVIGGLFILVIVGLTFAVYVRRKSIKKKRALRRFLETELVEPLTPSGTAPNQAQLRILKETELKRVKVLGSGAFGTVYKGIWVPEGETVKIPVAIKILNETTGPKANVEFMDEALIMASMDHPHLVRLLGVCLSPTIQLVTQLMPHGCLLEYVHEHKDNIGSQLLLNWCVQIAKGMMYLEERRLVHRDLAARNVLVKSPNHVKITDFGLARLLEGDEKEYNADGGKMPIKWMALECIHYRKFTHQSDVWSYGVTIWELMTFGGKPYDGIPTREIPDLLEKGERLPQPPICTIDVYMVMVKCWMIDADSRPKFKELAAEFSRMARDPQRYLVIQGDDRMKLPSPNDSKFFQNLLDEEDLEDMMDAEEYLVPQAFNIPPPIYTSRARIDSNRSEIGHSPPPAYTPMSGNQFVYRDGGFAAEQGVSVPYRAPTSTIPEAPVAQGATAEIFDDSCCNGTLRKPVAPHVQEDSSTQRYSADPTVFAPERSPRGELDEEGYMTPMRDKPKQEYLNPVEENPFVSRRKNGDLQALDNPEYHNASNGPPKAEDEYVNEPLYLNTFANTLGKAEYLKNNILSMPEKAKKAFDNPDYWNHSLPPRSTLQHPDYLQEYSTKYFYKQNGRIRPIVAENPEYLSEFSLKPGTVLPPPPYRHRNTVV

[10] = target: Mitogen-activated protein kinase 1 (Homo sapiens) (UniProt P28482); experiment: Inhibition of ERK2 (unknown origin) assessed as remaining activity at 1 uM by Kinome scan method relative to control
[11] = target: Tyrosine-protein kinase JAK1 (Homo sapiens) (UniProt P23458); experiment: Inhibition of JAK1 JH1 domain (unknown origin) assessed as remaining activity at 1 uM by Kinome scan method relative to control
[12] = tested on: Mast/stem cell growth factor receptor Kit (Homo sapiens), P10721 [D816H]; experiment: Inhibition of KIT D816H mutant (unknown origin) assessed as remaining activity at 1 uM by Kinome scan method relative to control
[13] = tested on: Mast/stem cell growth factor receptor Kit (Homo sapiens), P10721 [V559D]; experiment: Inhibition of KIT V559D mutant (unknown origin) assessed as remaining activity at 1 uM by Kinome scan method relative to control
[14] = target: Serine/threonine-protein kinase 10 (Homo sapiens) (UniProt O94804); experiment: Inhibition of LOK (unknown origin) assessed as remaining activity at 1 uM by Kinome scan method relative to control
[15] = target: Mitogen-activated protein kinase kinase kinase 11 (Homo sapiens) (UniProt Q16584); experiment: Inhibition of MLK3 (unknown origin) assessed as remaining activity at 1 uM by Kinome scan method relative to control
[16] = target: cAMP-dependent protein kinase catalytic subunit alpha (Homo sapiens) (UniProt P17612); experiment: Inhibition of PKAC-alpha (unknown origin) assessed as remaining activity at 1 uM by Kinome scan method relative to control
[17] = target: Serine/threonine-protein kinase PknB (Mycobacterium tuberculosis) (UniProt P9WI81); experiment: Inhibition of Mycobacterium tuberculosis PknB assessed as remaining activity at 1 uM by Kinome scan method relative to control
[18] = target: cAMP-dependent protein kinase catalytic subunit PRKX (Homo sapiens) (UniProt P51817); experiment: Inhibition of PRKX (unknown origin) assessed as remaining activity at 1 uM by Kinome scan method relative to control
[19] = tested on: Proto-oncogene tyrosine-protein kinase receptor Ret (Homo sapiens), P07949 [V804M]; experiment: Inhibition of RET V804M (unknown origin) assessed as remaining activity at 1 uM by Kinome scan method relative to control
Sequence of Proto-oncogene tyrosine-protein kinase receptor Ret (Homo sapiens), P07949 [V804M] (P07949 whole entry V804M): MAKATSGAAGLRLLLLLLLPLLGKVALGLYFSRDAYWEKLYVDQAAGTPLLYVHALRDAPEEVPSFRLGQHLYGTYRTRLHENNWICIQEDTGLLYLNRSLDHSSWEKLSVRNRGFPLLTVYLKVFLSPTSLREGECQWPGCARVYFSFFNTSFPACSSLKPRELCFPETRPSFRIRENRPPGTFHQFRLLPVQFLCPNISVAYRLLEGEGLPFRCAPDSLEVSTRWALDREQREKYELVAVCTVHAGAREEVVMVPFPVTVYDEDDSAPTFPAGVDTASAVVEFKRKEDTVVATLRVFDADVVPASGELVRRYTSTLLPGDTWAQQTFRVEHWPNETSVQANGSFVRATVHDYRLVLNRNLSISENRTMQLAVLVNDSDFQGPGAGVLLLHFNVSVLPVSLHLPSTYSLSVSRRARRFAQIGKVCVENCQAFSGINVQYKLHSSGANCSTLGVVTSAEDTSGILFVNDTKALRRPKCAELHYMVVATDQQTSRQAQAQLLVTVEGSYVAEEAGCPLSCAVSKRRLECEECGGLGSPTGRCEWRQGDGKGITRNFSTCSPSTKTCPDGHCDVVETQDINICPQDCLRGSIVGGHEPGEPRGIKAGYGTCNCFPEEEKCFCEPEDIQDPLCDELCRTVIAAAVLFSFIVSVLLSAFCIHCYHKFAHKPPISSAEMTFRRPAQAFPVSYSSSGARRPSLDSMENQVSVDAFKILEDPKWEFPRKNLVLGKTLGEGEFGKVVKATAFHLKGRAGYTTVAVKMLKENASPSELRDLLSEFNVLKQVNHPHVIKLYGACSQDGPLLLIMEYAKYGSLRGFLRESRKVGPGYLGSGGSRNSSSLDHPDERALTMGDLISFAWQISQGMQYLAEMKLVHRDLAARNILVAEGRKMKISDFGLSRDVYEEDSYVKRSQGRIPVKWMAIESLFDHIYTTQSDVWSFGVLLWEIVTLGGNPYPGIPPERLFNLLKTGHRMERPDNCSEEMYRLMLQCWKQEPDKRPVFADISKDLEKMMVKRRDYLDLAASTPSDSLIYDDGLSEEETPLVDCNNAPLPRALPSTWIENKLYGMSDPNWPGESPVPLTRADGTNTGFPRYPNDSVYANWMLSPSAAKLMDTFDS

[20] = target: Serine/threonine-protein kinase RIO1 (Homo sapiens) (UniProt Q9BRS2); experiment: Inhibition of RIOK1 (unknown origin) assessed as remaining activity at 1 uM by Kinome scan method relative to control
[21] = target: Ribosomal protein S6 kinase alpha-1 (Homo sapiens) (UniProt Q15418); experiment: Inhibition of N-terminal kinase domain RSK1 (unknown origin) assessed as remaining activity at 1 uM by Kinome scan method relative to control
Sequence of Ribosomal protein S6 kinase alpha-1 (Homo sapiens) (Q15418 whole entry, the tested form may be a part): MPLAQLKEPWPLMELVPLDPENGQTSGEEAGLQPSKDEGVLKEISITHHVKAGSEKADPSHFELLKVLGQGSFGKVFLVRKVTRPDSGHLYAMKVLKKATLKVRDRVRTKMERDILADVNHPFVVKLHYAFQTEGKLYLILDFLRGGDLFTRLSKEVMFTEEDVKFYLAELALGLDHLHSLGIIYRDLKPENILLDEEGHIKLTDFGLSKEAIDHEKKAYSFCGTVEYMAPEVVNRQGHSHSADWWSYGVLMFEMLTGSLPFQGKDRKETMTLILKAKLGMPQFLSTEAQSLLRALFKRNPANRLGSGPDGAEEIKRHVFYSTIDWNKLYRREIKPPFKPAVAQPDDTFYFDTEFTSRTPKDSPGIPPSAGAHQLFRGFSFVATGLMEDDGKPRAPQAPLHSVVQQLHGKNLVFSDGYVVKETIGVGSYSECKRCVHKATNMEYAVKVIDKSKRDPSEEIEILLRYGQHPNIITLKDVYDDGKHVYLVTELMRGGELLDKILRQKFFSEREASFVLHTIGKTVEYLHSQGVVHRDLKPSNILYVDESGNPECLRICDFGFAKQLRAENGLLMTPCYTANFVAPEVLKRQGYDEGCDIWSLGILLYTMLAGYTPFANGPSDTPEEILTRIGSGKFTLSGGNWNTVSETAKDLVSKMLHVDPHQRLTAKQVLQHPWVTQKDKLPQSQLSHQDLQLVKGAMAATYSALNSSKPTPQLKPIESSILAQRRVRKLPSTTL

[22] = target: Ribosomal protein S6 kinase alpha-6 (Homo sapiens) (UniProt Q9UK32); experiment: Inhibition of C-terminal kinase domain RSK4 (unknown origin) assessed as remaining activity at 1 uM by Kinome scan method relative to control
[23] = target: Serine/threonine-protein kinase SBK1 (Homo sapiens) (UniProt Q52WX2); experiment: Inhibition of SBK1 (unknown origin) assessed as remaining activity at 1 uM by Kinome scan method relative to control
Sequence of Serine/threonine-protein kinase SBK1 (Homo sapiens) (Q52WX2 whole entry): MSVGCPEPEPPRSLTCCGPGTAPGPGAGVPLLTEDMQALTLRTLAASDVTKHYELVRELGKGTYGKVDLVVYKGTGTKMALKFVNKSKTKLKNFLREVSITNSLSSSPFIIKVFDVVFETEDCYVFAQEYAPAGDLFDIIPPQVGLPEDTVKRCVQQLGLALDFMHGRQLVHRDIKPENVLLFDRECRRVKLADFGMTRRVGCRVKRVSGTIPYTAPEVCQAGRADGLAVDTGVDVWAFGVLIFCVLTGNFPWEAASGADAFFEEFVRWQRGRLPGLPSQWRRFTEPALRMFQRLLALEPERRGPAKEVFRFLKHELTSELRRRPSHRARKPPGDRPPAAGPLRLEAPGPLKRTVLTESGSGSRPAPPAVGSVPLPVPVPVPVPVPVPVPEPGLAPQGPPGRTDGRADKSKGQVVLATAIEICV

[24] = target: Serine/threonine-protein kinase tousled-like 1 (Homo sapiens) (UniProt Q9UKI8); experiment: Inhibition of TLK1 (unknown origin) assessed as remaining activity at 1 uM by Kinome scan method relative to control
Sequence of Serine/threonine-protein kinase tousled-like 1 (Homo sapiens) (Q9UKI8 whole entry): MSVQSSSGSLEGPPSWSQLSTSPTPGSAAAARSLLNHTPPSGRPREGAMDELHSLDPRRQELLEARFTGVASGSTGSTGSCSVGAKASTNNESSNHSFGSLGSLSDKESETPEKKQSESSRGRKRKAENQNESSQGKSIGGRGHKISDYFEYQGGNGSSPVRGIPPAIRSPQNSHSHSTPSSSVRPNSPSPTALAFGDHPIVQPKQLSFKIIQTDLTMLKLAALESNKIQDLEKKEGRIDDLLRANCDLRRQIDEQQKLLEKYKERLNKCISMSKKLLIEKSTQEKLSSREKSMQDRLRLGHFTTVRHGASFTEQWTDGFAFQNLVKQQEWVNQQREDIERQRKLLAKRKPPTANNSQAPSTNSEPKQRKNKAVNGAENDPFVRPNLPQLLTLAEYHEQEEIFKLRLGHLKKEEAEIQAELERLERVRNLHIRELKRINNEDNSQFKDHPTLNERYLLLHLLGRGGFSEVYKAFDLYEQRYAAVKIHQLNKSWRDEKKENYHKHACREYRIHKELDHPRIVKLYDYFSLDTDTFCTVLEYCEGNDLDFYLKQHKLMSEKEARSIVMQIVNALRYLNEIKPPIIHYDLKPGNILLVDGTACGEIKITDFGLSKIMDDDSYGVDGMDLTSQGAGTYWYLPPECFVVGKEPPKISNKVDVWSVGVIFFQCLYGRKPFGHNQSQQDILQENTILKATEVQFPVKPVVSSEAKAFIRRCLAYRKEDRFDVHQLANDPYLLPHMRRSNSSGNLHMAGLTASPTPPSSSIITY

[25] = target: Tyrosine-protein kinase TXK (Homo sapiens) (UniProt P42681); experiment: Inhibition of TXK (unknown origin) assessed as remaining activity at 1 uM by Kinome scan method relative to control
[26] = target: Mitogen-activated protein kinase kinase kinase 20 (Homo sapiens) (UniProt Q9NYL2); experiment: Inhibition of ZAK (unknown origin) assessed as remaining activity at 1 uM by Kinome scan method relative to control
RV-1 [27] = experiment: Induction of apoptosis in human RV-1 cells assessed as decrease in number of cell at 5 uM incubated for 3 days by Hoechst 33342 staining based analysis; format: functional; conditions: time 3.0 day
RV-1 [28] = experiment: Antiproliferative activity against human RV-1 cells assessed as reduction in cell viability at 500 to 2500 nM incubated for 5 days in presence of erlotinib by CellTiter-Glo assay; format: functional, cell-based; conditions: dose 500-2500 nM, time 5.0 day
RV-1 [29] = experiment: Antiproliferative activity against human RV-1 cells assessed as reduction in cell viability at 500 to 2500 nM incubated for 5 days in presence of MK2206 by CellTiter-Glo assay; format: functional, cell-based; conditions: dose 500-2500 nM, time 5.0 day
[30] = Induction of cell cycle arrest in human RV-1 cells assessed as accumulation of cells at G2/M phase at 2.5 uM incubated for 5 days by propidium iodide staining based flow cytometric analysis (reference value: 11.4 %); format: functional; conditions: time 5 day
[31] = Inhibition of PI3K/AKT/mTOR signalling pathway in human RV-1 cells assessed as decrease in 4EBP phosphorylation at T37/46 residue at 2.5 uM incubated for 4 hrs by immunoblot analysis; format: cell-based
[32] = Inhibition of PI3K/AKT/mTOR signalling pathway in human RV-1 cells assessed as decrease in S6K phosphorylation at T389 residue at 2.5 uM incubated for 5 days by immunoblot analysis; format: cell-based; conditions: time 5.0 day

For `C=CC(=O)Nc1cc(-n2c(=O)ccc3cnc4ccc(-c5ccc(NS(C)(=O)=O)cc5)cc4c32)ccc1C`, which Activity [1] is on record?
The Activity was 81%.

And the Activity [2]?
The Activity was 92%.

What about the Activity [3] of the same molecule?
Its Activity is 83%.

And the GI50 [4]?
Its GI50 is 2530 nM.

And the Activity [5]?
Its Activity is 12%.

What about the Activity [6] of the same molecule?
Its Activity is 76%.

What about the Activity [7] of the same molecule?
The Activity was 88%.

What about the Activity [8] of the same molecule?
Its Activity is 70%.

And the Activity [9]?
The Activity was 78%.

What about the Activity [10] of the same molecule?
The Activity was 94%.

And the Activity [11]?
The Activity was 87%.

And the Activity [12]?
The Activity was 99%.

What about the Activity [13] of the same molecule?
The Activity was 87%.

What about the Activity [14] of the same molecule?
Its Activity is 87%.

What about the Activity [15] of the same molecule?
Its Activity is 91%.

And the Activity [16]?
Its Activity is 83%.

What about the Activity [17] of the same molecule?
The Activity was 41%.

And the Activity [18]?
The Activity was 77%.

What about the Activity [19] of the same molecule?
Its Activity is 85%.

And the Activity [20]?
Its Activity is 20%.

What about the Activity [21] of the same molecule?
Its Activity is 76%.

And the Activity [22]?
The Activity was 56%.

And the Activity [23]?
Its Activity is 4.6%.

And the Activity [24]?
Its Activity is 86%.

And the Activity [25]?
The Activity was 25%.

What about the Activity [26] of the same molecule?
The Activity was 64%.

What about the Activity (RV-1 [27]) of the same molecule?
The Activity was “Active”.

And the Activity (RV-1 [28])?
The Activity was “Active”.

And the Activity (RV-1 [29])?
The Activity was “Active”.

What about the Activity [30] of the same molecule?
The Activity was 9.1%.

And the inhibition [31]?
The inhibition was “inactive”.

What about the inhibition [32] of the same molecule?
Its inhibition is “Active”.
